Test results: patent US5276019A, “Inhibitors for replication of retroviruses and for the expression of oncogene products” (The United States of America as represented by the …, priority 1988, dated 1994)
Entries after “also recorded” stand apart in the source; their conditions may differ. Oligonucleotides are written 5' to 3', each unit as a sugar letter and its base; * is a phosphorothioate linkage, no mark a phosphodiester; rarer units and linkages stand in square brackets, end groups in braces. Plain capitals give the bases only. d = 2'-deoxy (DNA)

How the values were obtained:
[1] = system: de novo HIV DNA synthesis; test: Southern blot analysis of de novo HIV DNA synthesis in ATH8 cells; assay type: cell-based
Excerpt: Target cells (1×10^7 ATH8 cells) were pretreated with or without S-dC28 at various concentrations for sixteen hours, then treated with Polynrene, exposed to HIV (500 virus particles per cell), resuspended, and cultured in the presence or absence of S-dC28. On days 4 and 7 following the exposure to the virus, high molecular weight DNA was extracted, digested with Asp718 (a Kpn I isoschizomer from Boehringer-Mannheim, Indianapolis, Ind.), and subjected to Southern blot analysis hybridized with a labelled insert of molecular clone of the env region of HTLV-III (BH10) containing a 1.3 Kb Bgl II fragment.
On days 4 and 7 following the exposure to the virus, a substantial amount of viral DNA was detected by Southern blot analysis without antiviral agents.
On day 4, shown in lanes A-E, and day 7, shown in lanes F-J, following exposure to the virus, high molecular weight DNA was extracted. Lanes A and F contain DNA from ATH8 cells that were exposed to the virus and not protected by S-dC28. Lanes B and G, C and H, D and I, contain DNA from ATH8 cells pretreated and cultured with 1 micromole, 5 micromoles, and 7 micromoles S-dC28, respectively. Lanes E and J contain DNA from ATH8 cells treated with 50 micromoles 2',3'-dideoxyadenonsine, and lane K contains DNA from ATH8 cells that was not exposed to the virus.

[2] = system: HTLV-IIIB virus (HIV) in ATH8 cells; test: HIV cytopathic effect inhibition in ATH8 cells; assay type: cell-based; settings: for anti-HIV activity / protection against cytopathic effect: ATH8 cells
Description: Because it is possible that inter-assay variation may create an inappropriate comparison of antiviral activity among agents, experiments were performed simultaneously to make more precise comparisons.
After a number of days in culture, generally 7-10 days, either substantial cell death due to HIV infection (HIV cytopathic effect) or the protective effect of oligos against the cytopathicity of HIV was observed.

gamma-interferon = test: Induction of gamma-interferon in culture supernatant; assay type: cell-based
Excerpt: Another mechanism which should be considered is induction of interferon production such as that proposed for phophorothioate analogs of poly-r(I-C). […] Also, since there are no data to support the concept that phosphorothioate internucleotide linkages have a thiol character, and can thus form disulfides, the mechanism of action would likely be different from that proposed for antiviral polynucleotides having thiolated bases such as 5-mercapto-cytosine or -uracil.

p24 gag protein of HIV = test: HIV gag protein expression in chronically HIV-infected H9 cells (indirect immunofluorescence); assay type: cell-based; settings: up to 25 micromoles, 120 hours
Description: The percentage of cells expressing p24 gag protein of HIV was determined by indirect immunofluorescence microscopy by using anti-HIV p24 murine monoclonal antibody.
Generally, it has been assumed that anti-sense sequences inhibit the expression of various genes by translation arrest, i.e. that they bind to mRNA and block its translation. In order to test this possibility, gag protein synthesis was analyzed in chronically HIV-infected and -producing H9 cells by indirect immunofluorescent assay under a microscope. […] Alternatively, the level of any translation arrest could have been below the threshold of detection by indirect immunofluorescent assay under a microscope. […] Therefore, one mechanism for the antiviral effect could depend on blocking viral replication perhaps prior to, or at the stage of, pro-viral DNA synthesis.

S1 nuclease = test: Nuclease susceptibility, S1 nuclease; assay type: in vitro ADME
Excerpt: (§1) Several oligodeoxynucleotides were studied with regard to DNase sensitivity, cf. Table 5. These include cytidine homopolymers, ODN-4 (an anti-message 38-mer complementary to the 3' region of the art/trs region of HIV BH10 clone), and myc-1 (a 15-mer complementary to the initiation codon region of the C-myc oncogene). The DNases employed were predominantly endonuclease S1, the exo- and endonuclease P1, and snake venom (SV) phosphodiesterase. The concentration of S1 nuclease was ten-fold higher ([…]) for reactions of olifo-dC, since both the normal and PS analog were degraded extremely slowly be this enzyme. S1 and P1 nuclease digestion proceeded at 2-45 times more slowly for the S-ODNs than for the normal oligomers, with the […] being somewhat more readily digested than the 28-mer.

P1 nuclease = test: Nuclease susceptibility, P1 nuclease; assay type: in vitro ADME
Excerpt: as §1

[3] = system: T4 molecule in T4 cells (H9 cells); test: HIV binding to T4 molecule in H9 cells (radiolabelled virus)
Description: (§2) The possibility that the S-ODN analogs may interfere with HIV binding to target cells was tested.

[4] = system: T4, HLA-DR, T8, T3, or Tac antigen on ATH8 cells; test: Surface antigens of ATH8 cells by fluorescent-activated cytofluorometry; assay type: cell-based; settings: i micromole, sixteen hours
Description: as §2

Solubility = assay type: physicochemical; settings: acetate salts
Excerpt: Oligodeoxynucleotides with blocks of phosphorothioates at the 3' or 5' ends were synthesized by automatically changing the oxidation cycle at the required point. […] Introduction of a small amount of ammonia vapor, not aqueous ammonia, by a Pasteur pipette solubilized all the solids. The yield determined from absorbance at lambda max was about 30%.

[5] = Stability in in vitro test media followed by 31P NMR; assay type: in vitro ADME
Excerpt: The phosphorothioate oligodeoxynucleotides of the present invention have suitable chemical characteristics, namely, the ability to hybridize with complementary DNA/mRNA under physiological conditions, and better solubility properties relative to methylphosphonates. Moreover, the thioesters are as soluble in biological media as the parent compounds.
Thus, it is believed that it is mainly the relative resistance of the phosphorothioate analogs to nucleases that preserves them relative to n-ODNs, and allows them to reach and remain at their target site. This was supported in relation to the media used in the in vitro test system by following the 31P NMR spectra of the n-ODN-1 and S-ODN-1 compounds as a function of time.

Stability in human serum = assay type: in vitro ADME; settings: 31P NMR
HL60 cells [6] = test: Inhibition of HL60 cell proliferation (cell count); assay type: cell-based
HL60 cells [7] = test: DNA synthesis in HL60 cells (3H-thymidine incorporation); assay type: cell-based; settings: FIG. 4, 50 uM, day 1
Description: To obtain the results shown in FIG. 4, nonsense or antisense S-ODNs were added at a final concentration of 50 uM on day 0 to cells seeded at 3×10^5/ml. DNA synthesis was determined on day 1 by incubating cells with 1 uCi 3H-thymidine for 4 hours, after which time 10% trichloroacetic acid was added and acid precipitatable radioactivity was trapped on Whatman glass fiber filters. The filters were subjected to liquid scintillation counting to determine levels of radioactivity.

With `Nc1ncnc2c1ncn2[C@H]1CC[C@@H](CO)O1` [2',3'-dideoxyadenosine, reference compound] the “2.7 Kb env-containing internal KPN I fragment of virus genome” value ([1]; 50 micromoles (lanes E, J), days 4 and 7) was “detected only in lanes A and F” and the minimal effective concentration ([1]; Human immunodeficiency virus 1, ATH-8, Southern blot, days 4 and 7, read-out: lowest concentration significantly inhibiting de novo synthesis of viral DNA) was 1 µM.

With `Nc1ccn([C@H]2CC[C@@H](CO)O2)c(=O)n1` [2',3'-dideoxycytidine, reference compound] the “protection against the virus” value ([2]; 0.5 micromoles) was “complete antiviral activity”.

For (dC)n n = 14 [S-dC14], the “protection against the virus” value ([2]; 5 micromoles) was “only a moderate effect”, the “anti-HIV activity / protection against cytopathic effect” value (shortened to “anti-HIV activity / protection”) [2] was “the most potent antiviral compound among those tested” and the “anti-HIV activity / protection” value ([2]; listed as 14-mer oligo-dC) was “substantial protection against HIV cytopathic effect”. For the same molecule, the induction of gamma-interferon (gamma-interferon) was “No induction of gamma-interferon”.

For (dC)n n = 28 [S-dC28], the “protection against the virus” value ([2]; 0.5 micromoles) was “complete protection against the virus; also recorded: complete antiviral activity”, the “inhibition of viral replication and protection of ATH8 cells” value ([2]; 3 micromoles) was 100% and the “anti-HIV activity / protection” value [2] was “the most consistent and durable antiviral effects; also recorded: one of the most potent analogs tested”. The “therapeutic index (ratio of cytotoxic to effective concentration)” value ([2]; in vitro) was “comparable in vitro index to those of dideoxycytidine and dideoxyadenosine”, the “gag protein positivity” value (p24 gag protein of HIV) was “failed to reduce gag protein positivity; also recorded: did not inhibit gag protein positivity” and the “2.7 Kb env-containing internal KPN I fragment of virus genome” value ([1]; 1, 5 and 7 micromoles S-dC28 (lanes B-D, G-I), days 4 and 7) was “detected only in lanes A and F”. For the same molecule, the “lowest concentration with complete inhibition of de novo synthesis of HIV DNA” value ([1]; Southern blot) was 1 µmol, the “lowest concentration significantly inhibiting de novo synthesis of viral DNA” value ([1]; Southern blot, days 4 and 7) was 1 µM and the “Ratio t1/2 PSoligo/t1/2 POoligo” value (S1 nuclease; oligo-dC, ten-fold higher S1 concentration) was 2. For the same molecule, the “Ratio t1/2 PSoligo/t1/2 POoligo” value (P1 nuclease) was 15, the “inhibition of HIV binding to T4 molecule” value [3] was “No inhibition” and the “changes in T4, HLA-DR, T8, T3, or Tac antigen” value [4] was “no detectable changes”. For the same molecule, the “solubility in 1M NaCl” value (Solubility) was “extremely insoluble in 1M NaCl”.

With “d-(Gs Gs As Gs As Cs As Gs Cs Gs As Cs Gs A) [S-ODN-2]” the “anti-HIV activity / protection” value [2] was “protected against HIV”.

For “d-(Ts Cs Gs Ts Cs Gs Cs Ts Gs Ts Cs Ts Cs C) [S-ODN-1]”, the “anti-HIV activity / protection” value [2] was “substantial activity against HIV; also recorded: protected against HIV”, the phosphorothioate bonds intact ([5]; 10 days) was “still intact after 10 days” and the degradation ([5]; a week) was “no significant degradation even after a week”. The “decomposition based on the total signal intensity” value ([5]; after 10 days) was “less than 5%”.

With “dAACGTTGAGGGGCAT [O-myc-1, reference compound]” the “half-life in 50% human serum” value (Stability in human serum) was “two to three”.

With dAACGTTGAGGGGCAT [S-myc-1] the “effect on cell proliferation” value (HL60 cells [6]; 0.1 micro M, FIG. 3) was “effective”, the “concentration relative to that required for the normal oligomer” value (HL60 cells [6]; HL60 cells) was “less than 1%” and the “inhibition of cell proliferation (cell count)” value (from here on “inhibition … (cell count)”) (HL60 cells [6]; HL60 cells, listed as anti-sense sequence) was “significant inhibition of cell proliferation”. The “inhibition … (cell count)” value (HL60 cells [6]; HL60 cells, listed as phosphorothioate oligodeoxynucleotide analogs of the same anti-sense sequence) was “inhibit proliferation of HL60 cells”, the “inhibition of cell proliferation (3H-thymidine incorporation)” value (HL60 cells [7]) was “significant inhibition of cell proliferation” and the “Ratio t1/2 PSoligo/t1/2 POoligo” value (S1 nuclease; ODN-4 and myc-1) was 9. For the same molecule, the “Ratio t1/2 PSoligo/t1/2 POoligo” value (P1 nuclease) was 4.

In the case of “nonsense S-ODN: 5'-CTG AAG TGG CAT GAG; non-sense, same composition as anti-sense but in random sequence (dC*dT*dG*dA*dA*dG*dT*dG*dG*dC*dA*dT*dG*dA*dG) [reference compound]”, the “inhibition … (cell count)” value (HL60 cells [6]; HL60 cells) is reported as “not all nonsense S-ODN concentrations affected cell proliferation” and the “inhibition … (cell count)” value (HL60 cells [6]; HL60 cells, listed as non-sense sequence) is reported as “none of the controls used, namely, the non-sense sequence, has shown similar activity”.

B1: recombinant gamma-interferon: recombinant gamma-interferon (protein, UniProt P01579 24-161, looked up)
Interferon gamma: QDPYVKEAENLKKYFNAGHSDVADNGTLFLGILKNWKEESDRKIMQSQIVSFYFKLFKNFKDDQSIQKSVETIKEDMNVKFFNSNKKKRDDFEKLTNYSVTDLNVQRKAIHELIQVMAELSPAAKTGKRKRSQMLFRG
In the case of B1, the “inhibition of cytopathic effect” value ([2]; 1000 units added directly to cultures) is reported as “did not inhibit the cytopathic effect”.
